Assay results published in patent US20230192700A1, “PYRAZOLOPYRAZINES ACTING ON CANCERS VIA INHIBITION OF CDK12” (Bayer Aktiengesellschaft, priority 2020, published 2023).
pIC50: −log10 of the molar value.

The compounds below were run on CAL-120 human breast adenocarcinoma cells (assay: Proliferation assay CAL-120 (crystal violet)). Details: CAL-120 cells, 4 days, median, read-out: Prolif-CAL-120— IC50 - [mol/l] (median).
Format: cell-based
Procedure: 4. Proliferation assay: MDA-MB-231, CAL-120
Human tumour cells were originally obtained from the American Type Culture Collection (ATCC), or from the Deutsche Sammlung von Mikroorganismen and Zellkulturen (DSMZ, German Collection of Microorganisms and Cell Cultures). Cultivated tumour cells (CAL-120, human breast adenocarcinoma cells, DSMZ ACC-459; MDA-M B-231, human breast cancer cells, ATCC HTB-26) were plated at a density of 4,000 cells/well in a 96-well multititer plate in 200 microL of their respective growth medium supplemented 10% fetal calf serum. After 24 hours, the cells of one plate (zero-point plate) were stained with crystal violet (see below), while the medium of the other plates was supplemented with the test substances in various concentrations (0 micromol/L, as well as in the range of 0.01-10 micromol/L; the final concentration of the solvent dimethyl sulfoxide was adjusted to 0.1%) using a Tecan HP D300 Digital Dispenser. The cells were incubated for 4 days in the presence of test substances. Cell proliferation was determined by staining the cells with crystal violet: the cells were fixed by adding 20 microL/measuring point of an 11% glutaric aldehyde solution for 15 minutes at room temperature. After three washing cycles of the fixed cells with water, the plates were dried at room temperature. The cells were stained by adding 100 microL/measuring point of a 0.1% crystal violet solution (pH 3.0). After three washing cycles of the stained cells with water, the plates were dried at room temperature. The dye was dissolved by adding 100 microL/measuring point of a 10% acetic acid solution. The extinction was determined by photometry at a wavelength of 595 nm. The change of cell number, in percent, was calculated by normalization of the measured values to the extinction values of the zero-point plate(=0%) and the extinction of the untreated (0 μM) cells(=100%). The IC50 values (inhibitory concentration at 50% of maximal effect) were determined by means of a 4 parameter fit.

SMILES | pIC50
CC(CCN(C)C)n1nc(NCc2nc3ccccc3[nH]2)c2ncc(C3CC3)nc21 (single isomer, unassigned) [Example 63, (+) or (−)-N-[(1H-benzimidazol-2-yl)methyl]-6-cyclopropyl-1-[4-(dimethylamino)butan-2-yl]-1H-pyrazolo[3,4-b]pyrazin-3-amine] | 6.06
CC(CCN(C)C)n1nc(NCc2nc3ccccc3[nH]2)c2ncc(C3CC3)nc21 (single isomer, unassigned) [Example 64, (−) or(+)-N-[(1H-benzimidazol-2-yl)methyl]-6-cyclopropyl-1-[4-(dimethylamino)butan-2-yl]-1H-pyrazolo[3,4-b]pyrazin-3-amine] | 6.53

Continued, values first:

pIC50 | SMILES
7.95 | CN1CCC(n2nc(NCc3nc4ccccc4[nH]3)c3ncc(C4CC4)nc32)C1 (single isomer, unassigned) [Example 78, (+) or (−)-N-[(1H-benzimidazol-2-yl)methyl]-6-cyclopropyl-1-(1-methylpyrrolidin-3-yl)-1H-pyrazolo[3,4-b]pyrazin-3-amine]
7.15 | CN1CCC(n2nc(NCc3nc4ccccc4[nH]3)c3ncc(C4CC4)nc32)C1 (single isomer, unassigned) [Example 79, (−) or (+)-N-[(1H-benzimidazol-2-yl)methyl]-6-cyclopropyl-1-(1-methylpyrrolidin-3-yl)-1H-pyrazolo[3,4-b]pyrazin-3-amine]
8.01 | CN1CCCC(n2nc(NCc3nc4ccccc4[nH]3)c3ncc(C4CC4)nc32)CC1 (single isomer, unassigned) [Example 38, (−) or (+)-N-[(1H-benzimidazol-2-yl)methyl]-6-cyclopropyl-1-[(4R*)-1-methylazepan-4-yl]-1H-pyrazolo[3,4-b]pyrazin-3-amine]
7.14 | c1ccc2[nH]c(CNc3nn(C4CCOC4)c4nc(C5CC5)cnc34)nc2c1 (single isomer, unassigned) [Example 18, (-) or (+) -N-[(1H-benzimidazol-2-yl)methyl]-6-cyclopropyl-1-[oxolan-3-yl]-1H-pyrazolo[3,4-b]pyrazin-3-amine]

Same assay, conditions: Homo sapiens, CAL-120, 96 h, CAL-120 cells, 4 days, median, read-out: Prolif-CAL-120— IC50 - [mol/l] (median)

SMILES | pIC50
Cc1cccc2[nH]c(CNc3nn(C4CCOCC4)c4nc(C5CC5)cnc34)nc12 [Example 33, 6-cyclopropyl-N-[(4-methyl-1H-benzimidazol-2-yl)methyl]-1-(oxan-4-yl)-1H-pyrazolo[3,4-b]pyrazin-3-amine] | 7.65
CN1CCC(n2nc(NCc3nc4cc(Cl)ccc4[nH]3)c3ncc(C4CC4)nc32)CC1 [Example 22, N-[(5-chloro-1H-benzimidazol-2-yl)methyl]-6-cyclopropyl-1-(1-methylpiperidin-4-yl)-1H-pyrazolo[3,4-b]pyrazin-3-amine] | 8.38
CC(C)(C)OC(=O)N1CCC(n2nc(NCc3nc4ccccc4[nH]3)c3ncc(C4CC4)nc32)CC1 [Example 11, tert-butyl 4-(3-{[(1H-benzimidazol-2-yl)methyl]amino}-6-cyclopropyl-1H-pyrazolo[3,4-b]pyrazin-1-yl)piperidine-1-carboxylate] | 7.09
Cc1c(Cl)ccc2[nH]c(CNc3nn(C4CCN(C)CC4)c4nc(C5CC5)cnc34)nc12 [Example 21, N-[(5-chloro-4-methyl-1H-benzimidazol-2-yl)methyl]-6-cyclopropyl-1-(1-methylpiperidin-4-yl)-1H-pyrazolo[3,4-b]pyrazin-3-amine] | 8.10
COCCCn1nc(NCc2nc3ccccc3[nH]2)c2ncc(C3CC3)nc21 [Example 61, N-[(1H-benzimidazol-2-yl)methyl]-6-cyclopropyl-1-(3-methoxypropyl)-1H-pyrazolo[3,4-b]pyrazin-3-amine] | 7.22
OCCCn1nc(NCc2nc3ccccc3[nH]2)c2ncc(C3CC3)nc21 [Example 60, 3-(3-{[(1H-benzimidazol-2-yl)methyl]amino}-6-cyclopropyl-1H-pyrazolo[3,4-b]pyrazin-1-yl)propan-1-ol] | 6.89
Cc1ccc2[nH]c(CNc3nn(C4CCN(C)CC4)c4nc(C5CC5)cnc34)nc2c1C [Example 28, 6-cyclopropyl-N-[(4,5-dimethyl-1H-benzimidazol-2-yl)methyl]-1-(1-methylpiperidin-4-yl)-1H-pyrazolo[3,4-b]pyrazin-3-amine] | 8.02
CN1CCC(n2nc(NCc3nc4cc(Cl)c(F)cc4[nH]3)c3ncc(C4CC4)nc32)CC1 [Example 29, N-[(5-chloro-6-fluoro-1H-benzimidazol-2-yl)methyl]-6-cyclopropyl-1-(1-methylpiperidin-4-yl)-1H-pyrazolo[3,4-b]pyrazin-3-amine] | 8.01
Fc1cccc2[nH]c(CNc3nn(C4CCOCC4)c4nc(C5CC5)cnc34)nc12 [Example 23, 6-cyclopropyl-N-[(4-fluoro-1H-benzimidazol-2-yl)methyl]-1-(oxan-4-yl)-1H-pyrazolo[3,4-b]pyrazin-3-amine] | 7.81

Results, then the compound that gave them:

pIC50 | SMILES
6.58 | CN1CCC(n2nc(NCc3nc4cc(SC(F)(F)F)ccc4[nH]3)c3ncc(C4CC4)nc32)CC1 [Example 27, 6-cyclopropyl-1-(1-methylpiperidin-4-yl)-N-({5-[(trifluoromethyl)sulfanyl]-1H-benzimidazol-2-yl}methyl)-1H-pyrazolo[3,4-b]pyrazin-3-amine]
7.93 | CN1CCC(n2nc(NCc3nc4ccccc4[nH]3)c3ncc(C4CC4)nc32)C1 (racemic) [Example 35, (±)-N-[(1H-benzimidazol-2-yl)methyl]-6-cyclopropyl-1-(1-methylpyrrolidin-3-yl)-1H-pyrazolo[3,4-b]pyrazin-3-amine]
6.52 | CC(CCN(C)C)n1nc(NCc2nc3ccccc3[nH]2)c2ncc(C3CC3)nc21 (racemic) [Example 62, (±)-N-[(1H-benzimidazol-2-yl)methyl]-6-cyclopropyl-1-[4-(dimethylamino)butan-2-yl]-1H-pyrazolo[3,4-b]pyrazin-3-amine]
8.15 | CN1CCC(n2nc(NCc3nc4c(Cl)c(F)ccc4[nH]3)c3ncc(C4CC4)nc32)CC1 [Example 31, N-[(4-chloro-5-fluoro-1H-benzimidazol-2-yl)methyl]-6-cyclopropyl-1-(1-methylpiperidin-4-yl)-1H-pyrazolo[3,4-b]pyrazin-3-amine]
7.02 | CC(C)n1nc(NCc2nc3ccccc3[nH]2)c2ncc(C3CC3)nc21 [Example 14, N-[(1H-benzimidazol-2-yl)methyl]-6-cyclopropyl-1-(propan-2-yl)-1H-pyrazolo[3,4-b]pyrazin-3-amine]
7.31 | FC1(F)CCC(n2nc(NCc3nc4ccccc4[nH]3)c3ncc(C4CC4)nc32)CC1 [Example 36, N-[(1H-benzimidazol-2-yl)methyl]-6-cyclopropyl-1-(4,4-difluorocyclohexyl)-1H-pyrazolo[3,4-b]pyrazin-3-amine]
8.14 | CN1CCC(n2nc(NCc3nc4c(Br)cccc4[nH]3)c3ncc(C4CC4)nc32)CC1 [Example 20, N-[(4-bromo-1H-benzimidazol-2-yl)methyl]-6-cyclopropyl-1-(1-methylpiperidin-4-yl)-1H-pyrazolo[3,4-b]pyrazin-3-amine]
7.87 | CN1CCC(n2nc(NCc3nc4cc(F)c(F)cc4[nH]3)c3ncc(C4CC4)nc32)CC1 [Example 30, 6-cyclopropyl-N-[(5,6-difluoro-1H-benzimidazol-2-yl)methyl]-1-(1-methylpiperidin-4-yl)-1H-pyrazolo[3,4-b]pyrazin-3-amine]
